Reference: PMC10726352, “Discovery of KB-0742, a Potent, Selective, Orally Bioavailable Small Molecule Inhibitor of CDK9 for MYC-Dependent Cancers” (Journal of Medicinal Chemistry, 2023)
“And” between values parts separate entries of the source, which are not always exact repeats. Equal entries are not always repeated. Values belong to the compound of their own block, whether it stands above or below them.

Tests used:
[1] = tested on: BT-549; test: OncoPanel Multiplexed Cytotoxicity Assay; assay type: cell-based
[2] = tested on: BT-20; test: OncoPanel Multiplexed Cytotoxicity Assay; assay type: cell-based
[3] = tested on: Hs 578T; test: OncoPanel Multiplexed Cytotoxicity Assay; assay type: cell-based
[4] = tested on: MDA-MB-231; test: OncoPanel Multiplexed Cytotoxicity Assay; assay type: cell-based
[5] = tested on: MT-3; test: OncoPanel Multiplexed Cytotoxicity Assay; assay type: cell-based
[6] = in vitro; conditions: dog, hepatocytes
[7] = Plasma protein binding; conditions: rat
[8] = in vitro; conditions: human, hepatocytes
[9] = Microsome stability; conditions: dog
[10] = Plasma protein binding; conditions: mouse
[11] = LogD; assay type: physicochemical; conditions: pH = 7.4
[12] = Plasma protein binding; conditions: dog
[13] = Pharmacokinetics; assay type: in vivo; conditions: rat
[14] = Plasma concentration in CTG-1017 tumor-bearing mice; assay type: in vivo; conditions: Athymic Nude-Foxn1nu, mouse, po, 60 mg/kg p.o.
[15] = Microsome stability; conditions: rat
[16] = in vitro; conditions: mouse, hepatocytes
[17] = in vitro; conditions: rat, hepatocytes
[18] = Plasma protein binding; conditions: human
[19] = Microsome stability; conditions: mouse
[20] = Microsome stability; conditions: human
[21] = Pharmacokinetics; assay type: in vivo; conditions: mouse
[22] = Projection of human PK parameters
[23] = in vitro; conditions: mouse, rat, dog, human, microsomes and hepatocytes
[24] = Pharmacokinetics; assay type: in vivo; conditions: dog

SMILES: CN[C@@H]1C[C@H]2O[C@@](C)([C@@H]1OC)n1c3ccccc3c3c4c(c5c6ccccc6n2c5c31)C(=O)NC4 [Staurosporine]
Apoptosis Emax [1]: 6.9 | Cell Count Activity Area [1]: 4.39 | G1/S cell cycle block ([1]; BT-549, 72 h): 0.00531 µM | GI50 ([1]; Homo sapiens, BT-549, 72 h, read-out: Cell count GI50): 5.56 nM | Apoptosis Emax [2]: 4.6 | Cell Count Activity Area [2]: 2.58 | G1/S cell cycle block ([2]; BT-20, 72 h): 0.00581 µM | EC50 ([2]; Homo sapiens, BT-20, 72 h, read-out: Cell Count EC50): 31.6 nM | GI50 ([2]; Homo sapiens, BT-20, 72 h, read-out: Cell count GI50): 23.6 nM | Apoptosis Emax [3]: 6.48 | Cell Count Activity Area [3]: 4.99 | GI50 ([3]; Homo sapiens, Hs-578T, 72 h, read-out: Cell count GI50): 1.45 nM | G1/S cell cycle block ([3]; Hs 578T, 72 h): 0.000753 µM | Apoptosis Emax [4]: 5.32 | Cell Count Activity Area [4]: 5.26 | IC50 ([4]; Homo sapiens, MDA-MB-231, 72 h, read-out: Cell count IC50): 1.69 nM | G1/S cell cycle block ([4]; MDA-MB-231, 72 h): 0.0122 µM | Apoptosis Emax [5]: 10.32 | G1/S cell cycle block ([5]; MT-3, 72 h): 0.0273 µM | GI50 ([5]; MT-3, 72 h, read-out: Cell count GI50): 9.39 nM

CLint scaled [6]: 38 mL/min/kg | half-life [6]: 3.25 h | PPB [7]: 41 % bound | CLint scaled [8]: 1.6 mL/min/kg | half-life [8]: 39 h | Microsome stability [9]: 68.8 % remaining 180 min | PPB [10]: 48 % bound | logD [11]: 0.9 | PPB [12]: 72 % bound | T1/2 (i.v.) ([13]; i.v. 2.0 mg/kg): 2.4 h | AUC (p.o.) ([13]; p.o. 10 mg/kg): 3591 ng·h/mL | Cmax (p.o.) ([13]; p.o. 10 mg/kg): 411 ng/mL | concentration at 2 h ([14]; 2 h post-dose): 846 ng/mL and 2.9 µM | concentration at 8 h ([14]; 8 h post-dose): 73 ng/mL and 250 nM | Microsome stability [15]: 81.3 % remaining 180 min | CLint scaled [16]: 44 mL/min/kg | CLint scaled [17]: 62 mL/min/kg | half-life [17]: 1.97 h | PPB [18]: 38 % bound | Microsome stability [19]: 87.4 % remaining 180 min | Microsome stability [20]: 92.5 % remaining 180 min | Vd,ss (i.v.) ([21]; i.v. 1.0 mg/kg): 3.9 L/kg | AUC (p.o.) ([21]; p.o. 20 mg/kg): 1700 ng·h/mL | Cmax (p.o.) ([21]; p.o. 20 mg/kg): 501 ng/mL | mean predicted human Vd,ss ([22]; 70 kg body weight, IVIVE and allometry): 6.0 L/kg | predicted human oral bioavailability ([22]; derived from nonclinical species): 75% | half-life ([22]; human, plasma, one-compartment, read-out: estimated human terminal half-life (converted)): ~35 h | half-life [23]: ≥ 2 h | T1/2 (i.v.) ([24]; i.v. 0.50 mg/kg): 4.7 h | Vd,ss (i.v.) ([24]; i.v. 0.50 mg/kg): 4.5 L/kg | F ([24]; p.o. […]): >100% | CLint scaled ([24]; plasma, iv, 0.5 mg/kg, i.v. 0.50 mg/kg): 13.4 mL/min/kg
SMILES: CCC(CC)c1cc(N[C@H]2CC[C@H](N)C2)n2nccc2n1 [Compound 28, [(1S,3S)-3-[[5-(1-Ethylpropyl)pyrazolo[1,5-a]pyrimidin-4-ium-7-yl]amino]cyclopentyl]ammonium Dichloride]
